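48-hour exposure; five concentrations; linearly interpolated endpoints. TGI: concentration producing complete growth inhibition.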
Experiments:
Assay in all cases: DTP human tumour cell line panel, 48 h
DLD-1 colon = system: DLD-1 colon
M19-MEL melanoma = system: M19-MEL melanoma
LXFL 529 NSCLC = system: LXFL 529 NSCLC
KM20L2 colon = system: KM20L2 colon
SNB-78 CNS = system: SNB-78 CNS

Row | SMILES | TGI (DLD-1 colon) [µM] | TGI (M19-MEL melanoma) [µM] | TGI (LXFL 529 NSCLC) [µM] | TGI (KM20L2 colon) [µM] | TGI (SNB-78 CNS) [µM]
1 | CCCCN(CCCC)c1c([N+](=O)[O-])c(=O)nc2ccccn12 | > 100 | > 100 | > 100 | > 100 | > 100
2 | COC(=O)C(CC(=O)Nc1ccc(C)cc1)C(=O)C(=O)Nc1ccccc1C(C)C (stereo not given) | > 100 | > 100 | > 100 | > 100 | > 100
3 | CC1=C(C(=O)Nc2cccc(Cl)c2)C(c2ccccc2F)C(C(=O)Nc2cccc(Cl)c2)=C(C)N1 | 28.8 | 26.4 | 23.4 | 24.3 | 60.9
4 | OC1(c2ccccc2)OC(C#Cc2ccccc2)(c2ccccc2)c2ccccc21 (stereo not given) | 11.2 | 11.1 | 19.2 | 13.6 | 23.2
5 | C/C(=N\N(c1ccccc1)c1ccccc1)c1c(O)cc(C)oc1=O | > 100 | > 100 | > 100 | > 100 | > 100
6 | CN1CC[C@]2(C)c3ccc(O)cc3CC3CCCC1C32C (stereo not given in full) | > 100 | > 100 | > 100 | > 100 | > 100
7 | CS(=O)(=O)CSCSSCS(C)(=O)=O | > 75.4 | > 100 | 42.5 | > 100 | > 100
8 | CN(C)CC1CCC/C1=N\O (stereo not given) | > 100 | > 100 | > 100 | > 100 | > 100
9 | COC1C2C=CC(C2)[C@H]1[N+](=O)[O-] (stereo not given in full) | > 100 | > 100 | > 100 | > 100 | > 100
10 | Cc1ccc(-c2cc(-c3ccco3)c(C#N)c(=O)n2C2OC(OC(=O)c3ccccc3)C(OC(=O)c3ccccc3)C2OC(=O)c2ccccc2)cc1 (stereo not given) | > 100 | > 100 | > 100 | > 100 | > 100

— PubChem BioAssay (NCI)
